Tests used:
[1] = general description; cited from earlier work
[2] = tested on: S. epider.; test: Zone of inhibition test on TSA plates; type: cell-based
Experimental: (§1) A zone of inhibition test is conducted on several materials: zinc oxide and amino acid hydrohalide alone and a mixture formed from zinc oxide and amino acid hydrohalide. The method involves making a lawn of freshly prepared bacterial culture on TSA (trypticase soy agar) plates. Sterile filter paper discs are seeded with 20 μl of test sample (supernatant or mixture). Sample-coated filter paper discs are air dried and applied onto the bacterial lawn on TSA plates. Plates are incubated for 20 hours at 37° C.

[3] = tested on: S. aureus; test: Zone of inhibition test on TSA plates; type: cell-based
Experimental: as §1

[4] = tested on: C. xerosis; test: Zone of inhibition test on TSA plates; type: cell-based
Experimental: as §1

[5] = tested on: C. minutissimum; test: Zone of inhibition test on TSA plates; type: cell-based
Experimental: as §1

[6] = Hydrolysis reaction: pH and turbidity of diluted ZLC solutions before and after aging; type: physicochemical; settings: for pH after aging / turbidity after aging: aged at 37° C. over 5 hours
Experimental: A 185 mg/ml solution of ZLC is prepared and diluted several-fold and aged in a 37° C. oven over 5 hours for turbidity studies. […] Turbidity of the solutions is measured using a nephelometer, results being given in nephelometric turbidity units (NTU).
The precipitates formed in the 8×, 16× and 32× diluted solutions are collected by centrifugation and identified as crystalline ZnO by PXRD. From the supernatant, a single crystal is grown and shown by X-ray diffraction to be Lysine Monohydrochloride Dihydrate (Lysine.HCl.2H2O).

[7] = target: Bovine Serum Albumin (BSA) (Bos taurus, UniProt P02769); test: Flocculation of ZLC in the presence of protein (turbidity, pH); settings: ZLC about 15 mg/ml, 5 hours at 37° C.
Experimental: Turbidity and pH of solutions are measured 5 hours after the mixtures were placed in a 37° C. oven, and the results are shown in Table 6.

[8] = Table 3, sample form not stated
[9] = sample 1: DI water, 0% BSA, pH 6.4

Chain of Bovine Serum Albumin (BSA) (P02769 25-607): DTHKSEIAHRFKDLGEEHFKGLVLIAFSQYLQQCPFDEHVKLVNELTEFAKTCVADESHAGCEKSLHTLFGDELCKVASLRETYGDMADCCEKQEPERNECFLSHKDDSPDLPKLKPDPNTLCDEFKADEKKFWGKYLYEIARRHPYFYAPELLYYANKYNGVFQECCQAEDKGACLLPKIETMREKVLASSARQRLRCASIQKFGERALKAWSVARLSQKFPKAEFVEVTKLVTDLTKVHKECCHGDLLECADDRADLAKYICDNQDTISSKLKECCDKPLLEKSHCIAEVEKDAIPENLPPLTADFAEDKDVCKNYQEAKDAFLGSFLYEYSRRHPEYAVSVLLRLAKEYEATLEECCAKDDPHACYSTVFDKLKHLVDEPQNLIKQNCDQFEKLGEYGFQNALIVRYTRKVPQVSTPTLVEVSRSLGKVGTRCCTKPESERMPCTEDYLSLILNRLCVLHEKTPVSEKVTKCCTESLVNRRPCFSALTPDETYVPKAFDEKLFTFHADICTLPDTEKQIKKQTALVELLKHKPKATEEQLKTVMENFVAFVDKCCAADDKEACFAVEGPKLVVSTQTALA

[O]=[Zn] [ZnO(4%), zinc oxide]
solubility in water [1]: insoluble in water | Zone of Inhibition ([2]; Dry Sample, Mixture): 10 mm | Zone of Inhibition ([2]; Dry Sample, Supernatant): 0 mm | Zone of Inhibition ([2]; Wet Sample, Mixture): 12 mm | Zone of Inhibition ([2]; Wet Sample, Supernatant): 0 mm | Zone of Inhibition ([3]; Dry Sample, Mixture): 7 mm | Zone of Inhibition ([3]; Dry Sample, Supernatant): 0 mm | Zone of Inhibition ([3]; Wet Sample, Mixture): 7 mm | Zone of Inhibition ([3]; Wet Sample, Supernatant): 0 mm | Zone of Inhibition ([4]; Dry Sample, Mixture): 0 mm | Zone of Inhibition ([4]; Dry Sample, Supernatant): 0 mm | Zone of Inhibition ([4]; Wet Sample, Mixture): 0 mm | Zone of Inhibition ([4]; Wet Sample, Supernatant): 0 mm

NCCCC[C@H](N)C(=O)O [Lysine 4%, lysine]
Zone of Inhibition [5, 8]: 0 mm | Zone of Inhibition [3, 8]: 0 mm

Cl.NCCCC[C@H](N)C(=O)O [Lysine-HCl 23.2%, lysine hydrochloride]
Zone of Inhibition [5, 8]: 0 mm | Zone of Inhibition ([2]; Dry Sample, As is): 0 mm | Zone of Inhibition ([2]; Wet Sample, As is): 0 mm | Zone of Inhibition ([3]; Dry Sample, As is): 0 mm | Zone of Inhibition [3, 8]: 0 mm | Zone of Inhibition ([3]; Wet Sample, As is): 0 mm | Zone of Inhibition ([4]; Dry Sample, As is): 0 mm | Zone of Inhibition ([4]; Wet Sample, As is): 0 mm

NCCCCC(N)C(=O)O.NCCCCC(N)C(=O)O.O.O.[Cl-].[Cl-].[Zn+2] (stereo not drawn) [ZLC, [Zn(Lysine)2Cl]^+Cl^−.2H2O]
initial turbidity ([6]; 5.78 mg/ml): 40.1 NTU | pH after aging ([6]; 5.78 mg/ml): 8 | turbidity after aging ([6]; 5.78 mg/ml): >1000 NTU | initial turbidity ([6]; 11.56 mg/ml): 14.8 NTU | pH after aging ([6]; 11.56 mg/ml): 7.8 | turbidity after aging ([6]; 11.56 mg/ml): >1000 NTU | initial turbidity ([6]; 23.125 mg/ml): 0.7 NTU | pH after aging ([6]; 23.125 mg/ml): 7.7 | turbidity after aging ([6]; 23.125 mg/ml): 247.4 NTU | initial turbidity ([6]; 46.25 mg/ml): 1.5 NTU | pH after aging ([6]; 46.25 mg/ml): 7.4 | turbidity after aging ([6]; 46.25 mg/ml): 2.8 NTU | initial turbidity ([6]; 92.5 mg/ml): 2.8 NTU | pH after aging ([6]; 92.5 mg/ml): 7 | turbidity after aging ([6]; 92.5 mg/ml): 2.6 NTU | initial turbidity ([6]; 185 mg/ml): 4.7 NTU | pH after aging ([6]; 185 mg/ml): 6.8 | turbidity after aging ([6]; 185 mg/ml): 4.1 NTU | stability of the complex upon dilution ([6]; 8×, 16× and 32× diluted solutions, precipitate identified as crystalline ZnO by PXRD): disassociates upon dilution, with consequent precipitation of zinc oxide | Turbidity [7, 9]: 357 NTU | pH [7, 9]: 8 | Turbidity ([7]; sample 2: 1% BSA, pH 7.2): >1000 NTU | pH ([7]; sample 2: 1% BSA, pH 7.2): 8.2 | Turbidity ([7]; sample 3: 1% BSA, pH adjusted to 5.1): >1000 NTU

[Cl-].[Cl-].[OH-].[OH-].[OH-].[OH-].[OH-].[OH-].[OH-].[OH-].[Zn+2].[Zn+2].[Zn+2].[Zn+2].[Zn+2] [TBZC (4%), zinc chloride hydroxide monohydrate]
Zone of Inhibition ([5]; Table 3, Mixture): 7 mm | Zone of Inhibition ([5]; Table 3, Supernat): 7 mm

N=C(N)NCCC[C@H](N)C(=O)O [Arginine 4%, arginine]
Zone of Inhibition [5, 8]: 0 mm | Zone of Inhibition [3, 8]: 0 mm
